Measurements from patent US20250177366A1, “COMPOSITIONS AND METHODS FOR ALLEVIATING PAIN AND REDUCING ADVERSIVENESS OF STIMULI” (UNIVERSITY OF WASHINGTON, priority 2021, published 2025).

System: larval zebrafish
Experiment: Thermal preference assay (28.5° C. vs 37.5° C.), non-sensitized
Assay type: in vivo, Zebrafish (Danio rerio)
Conditions: for effect of co-applied drug on AS1-induced attraction to noxious heat / temperature choice, drug alone / effect of structural analog on temperature preference (time spent in the 28.5° C. zone): 28.5° C. vs 37.5° C.; for effect of co-applied drug on AS1-induced attraction to noxious heat: drug + 5 μM AS1; for temperature choice, drug alone: without AS1; for Reverses 28.5° C. Choice?: temperature preference 28.5° C. vs 37.5° C., larval zebrafish; for effect of structural analog on temperature preference (time spent in the 28.5° C. zone): at the tested concentration
Description: Thermal preference assay. […] Once an entire plate was loaded with fish, the appropriate incubation solution was added. […] Following incubation in all experiments, the choice testing plate was transported to a dual solid-state heat/cool plate (AHP-1200° C. P; Teca) and centered such that half of each arena was positioned over each side of the heat/cool plate. […] Locomotor behavior was recorded using a Canon high-definition video camcorder suspended at a fixed position above the choice testing plate. Each trial was four minutes in duration.
For single-incubation assays (e.g. testing single chemicals), larval zebrafish were caught in 100 μL E2 media and 100 μL of the control (2% DMSO) or test chemical at 2× concentration was added to each well to achieve the final desired concentration. […] The final DMSO concentration in all solutions was 1%.

Structure (SMILES)	effect of co-applied drug on AS1-induced attraction to noxious heat	temperature choice, drug alone	Reverses 28.5° C. Choice?	effect of structural analog on temperature preference (time spent in the 28.5° C. zone)	effect of structural analog on temperature preference (time spent in the 28.5° C. zone) (listed as Analog 9089110)
CN1CCN(CCc2ccc(Cl)c(Cl)c2)CC1 [BD1063]	At no concentration did BD1063 influence AS1-induced attraction towards noxious heat	significantly chose the 28.5 °C side			
CC(N)Cc1c[nH]c2ccc(OCc3cccs3)cc12 (stereo not drawn) [BW723C86]	At no concentration did BW723C86 influence AS1-induced attraction towards noxious heat	significantly chose the 28.5 °C side			
O=C1CC2(CCCC2)CC(=O)N1CCCCN1CCN(c2ncccn2)CC1 [Buspirone, buspirone]		had no effect upon thermal preference			
CC(C)c1ccc(NC(=O)c2cccnc2)cc1 [Compound 5538018, N-(4-isopropylphenyl)nicotinamide]			No		
CC(C)c1ccc(C(=O)Nc2cccnc2)cc1 [Compound 7301738, 4-isopropyl-N-3-pyridinylbenzamide]			No	only had a small, if still significant, effect on temperature preference	
Cc1ccc(C(=O)Nc2ccncc2)c(C)c1 [Compound 7755382, 2,4-dimethyl-N-4-pyridinylbenzamide]			No	prevented an analogue from replicating the effects of AS1	
CCc1ccc(C(=O)Nc2cccnc2)cc1 [Compound 7947669, 4-ethyl-N-3-pyridinylbenzamide]			No		
Cc1cc(C)c(C(=O)Nc2ccncc2)c(C)c1 [Compound 9047736, 2,4,6-trimethyl-N-4-pyridinylbenzamide]			No	prevented an analogue from replicating the effects of AS1	
CCCc1ccc(C(=O)Nc2ccncc2)cc1 [Compound 9089110, 4-propyl-N-4-pyridinylbenzamide]			No preference for either temperature	abolished preference for either side	completely ablated aversion
Cc1noc(C)c1C(=O)Nc1ccc(C(C)C)cc1 [Compound 9089180, N-(4-isopropylphenyl)-3,5-dimethyl-4-isoxazolecarboxamide]			No	had a significant (if small) influence upon temperature choice behavior	
CCCc1ccc(C(=O)Nc2cccnc2)cc1 [Compound 9090934, 4-propyl-N-3-pyridinylbenzamide]			No	has no effect upon temperature preference	
CCCCc1ccc(C(=O)Nc2ccncc2)cc1 [Compound 9098532, 4-butyl-N-4-pyridinylbenzamide]			No	prevented an analogue from replicating the effects of AS1	
COc1ccc(CC2NCCc3c2[nH]c2ccc(C)cc32)c(Cl)c1OC (stereo not drawn) [LY266097]	At no concentration did LY266097 influence AS1-induced attraction towards noxious heat	significantly chose the 28.5 °C side			
COc1ccc(Br)cc1CCc1c(F)cccc1C1=NCCN1 [ML00253764]	At no concentration did ML00253764 reduce AS1-induced attraction towards noxious heat	slightly potentiate preference towards the 28.5 °C zone			
O=C(OCCN1CCOCC1)C1(c2ccccc2)CCCCC1 [PRE-084]	At no concentration did PRE-084 influence AS1-induced attraction towards noxious heat	potentiating preference for the 28.5 °C zone			
Cn1c(=O)c2c(ncn2C)n(C)c1=O [caffeine]		did not affect thermal preference for 28.5 °C			
CN1C(=O)CN=C(c2ccccc2)c2cc(Cl)ccc21 [diazepam]		potentiated preference for 28.5 °C			
